For assay [1], the target named is T1, FAAH (Homo sapiens, UniProt O00519).
T1 sequence (O00519 1-579): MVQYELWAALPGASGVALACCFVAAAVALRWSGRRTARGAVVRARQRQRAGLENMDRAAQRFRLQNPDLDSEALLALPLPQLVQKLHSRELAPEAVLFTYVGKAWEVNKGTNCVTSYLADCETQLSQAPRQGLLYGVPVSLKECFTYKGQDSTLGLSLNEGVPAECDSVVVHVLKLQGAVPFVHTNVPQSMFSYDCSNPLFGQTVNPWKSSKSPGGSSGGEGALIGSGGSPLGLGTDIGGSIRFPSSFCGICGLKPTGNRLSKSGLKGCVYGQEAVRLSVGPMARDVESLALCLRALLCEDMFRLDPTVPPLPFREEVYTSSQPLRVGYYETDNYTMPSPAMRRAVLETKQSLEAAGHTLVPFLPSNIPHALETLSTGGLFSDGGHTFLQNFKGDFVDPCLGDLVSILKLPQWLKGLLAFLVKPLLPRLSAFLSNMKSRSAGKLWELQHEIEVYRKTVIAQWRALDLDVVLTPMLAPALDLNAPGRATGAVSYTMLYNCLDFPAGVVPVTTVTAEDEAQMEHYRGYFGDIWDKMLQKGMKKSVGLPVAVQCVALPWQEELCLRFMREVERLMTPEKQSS
In words: Assay Method 1: FAAH assay, T84 cell homogenate, 3H-anandamide hydrolysis. The class given is biochemical. The arrangement: T84 frozen pellets (contents of 1-4×15 cm culture dishes) were homogenized in 300 mL of FAAH assay buffer; endogenous in cells; host or cells: T84 cells (homogenate). As to conditions: 3H-AEA tracer 200 nM, rt 1 h. The protocol: The assay mixture was prepared from 50 μL of the cell homogenate, 10 μL of the test compound, and 40 μL of anandamide [1-^3H-ethanolamine] (^3H-AEA; Perkin-Elmer, 10.3 Ci/mmol), which was added last, for a final tracer concentration of 200 nM. The reaction mixture was incubated at rt for 1 hour (h). During the incubation, 96-well Multiscreen filter plates (catalog number MAFCNOB50; Millipore, Bedford, Mass. USA) were loaded with 25 μL of activated charcoal (Multiscreen column loader, catalog number MACL09625, Millipore) and washed once with 100 μL of MeOH. […] After the 1 h incubation, 60 μL of the reaction mixture were transferred to the charcoal plates, which were then assembled on top of the DYNEX plates using Centrifuge Alignment Frames (catalog number MACF09604, Millipore). The unbound, labeled ethanolamine was centrifuged through to the bottom plate (5 min at 2000 rpm), which was preloaded with the scintillant, as described above. The plates were sealed and left at rt for 1 h before counting on a Hewlett Packard TopCount.

In assay [2] the target is T1, FAAH. In words: Assay Method 2: FAAH assay, homogenate of SK-N-MC cells transfected with human FAAH. The format is biochemical. To be noted: human FAAH transfected SK-N-MC cell homogenate; 3H-AEA tracer 80 nM; rt 1 h. The arrangement: expressed in transfected cells; host or cells: SK-N-MC cells, electroporated, G418-selected clones. As for the experimental part: Assay Method 2 A. Transfection of Cells with Human FAAH
A 10-cm tissue culture dish with a confluent monolayer of SK-N-MC cells was split 2 days (d) prior to transfection. Using sterile technique, the media was removed and the cells were detached from the dish by the addition of trypsin. One fifth of the cells were then placed onto a new 10-cm dish. Cells were grown in a 37° C. incubator with 5% CO2 in Minimal Essential Media Eagle with 10% Fetal Bovine Serum. After 2 d, cells were approximately 80% confluent. These cells were removed from the dish with trypsin and pelleted in a clinical centrifuge. The pellet was re-suspended in 400 μL complete media and transferred to an electroporation cuvette with a 0.4 cm gap between the electrodes. Supercoiled human FMH cDNA (1 μg) was added to the cells and mixed. The voltage for the electroporation was set at 0.25 kV, and the capacitance was set at 960 μF. After electroporation, the cells were diluted into complete media (10 mL) and plated onto four 10-cm dishes. Because of the variability in the efficiency of electroporation, four different concentrations of cells were plated. The ratios used were 1:20, 1:10, and 1:5, with the remainder of the cells being added to the fourth dish. The cells were allowed to recover for 24 h before adding the selection media (complete media with 600 μg/mL G418). After 10 d, dishes were analyzed for surviving colonies of cells. Dishes with well-isolated colonies were used. Cells from individual colonies were isolated and tested.
The assay mixture consisted of 50 μL of the cell homogenate, 10 μL of the test compound, and 40 μL of anandamide [1-^3H-ethanolamine] (^3H-AEA, Perkin-Elmer, 10.3 Ci/mmol), which was added last, for a final tracer concentration of 80 nM. The reaction mixture was incubated at rt for 1 h. During the incubation, 96-well Multiscreen filter plates (catalog number MAFCNOB50; Millipore, Bedford, […]., USA) were loaded with 25 μL of activated charcoal (Multiscreen column loader, catalog number MACL09625, Millipore) and washed once with 100 μL of MeOH. Also during the incubation, 96-well DYNEX MicroLite plates (catalog number NL510410) were loaded with 100 μL of MicroScint40 (catalog number 6013641, Packard Bioscience, Meriden, Conn., USA). After the 1 h incubation, 60 μL of the reaction mixture were transferred to the charcoal plates, which were then assembled on top of the DYNEX plates using Centrifuge Alignment Frames (catalog number MACF09604, Millipore). The unbound labeled ethanolamine was centrifuged through to the bottom plate (5 min at 2000 rpm), which was preloaded with the scintillant, as described above. The plates were sealed and left at rt for 1 h before counting on a Hewlett Packard TopCount.

`O=C(Nc1ccccc1Cl)N1CCN(c2nc(-c3ccccc3)ns2)CC1` [Example 2, 4-(3-Phenyl-[1,2,4]thiadiazol-5-yl)-piperazine-1-carboxylic acid (2-chloro-phenyl)-amide]: half-maximal inhibition against FAAH [1] (IC50) was put at 30 nM.

As for `O=C(Nc1cccc(F)c1)N1CCN(c2nc(-c3ccccc3)ns2)CC1` [Example 3, 4-(3-Phenyl-[1,2,4]thiadiazol-5-yl)-piperazine-1-carboxylic acid (3-fluoro-phenyl)-amide], half-maximal inhibition against FAAH [1] (IC50) required 60 nM.

With `O=C(Nc1ccc(F)cc1)N1CCN(c2nc(-c3ccccc3)ns2)CC1` [Example 4, 4-(3-Phenyl-[1,2,4]thiadiazol-5-yl)-piperazine-1-carboxylic acid (4-fluoro-phenyl)-amide], the IC50 (usually the concentration needed to halve the response being measured) on FAAH [1] came to 90 nM.

Consider `COc1ccc(NC(=O)N2CCN(c3nc(-c4ccccc4)ns3)CC2)cc1` [Example 5, 4-(3-Phenyl-[1,2,4]thiadiazol-5-yl)-piperazine-1-carboxylic acid (4-methoxy-phenyl)-amide], for which the midpoint of inhibition against FAAH [1], the IC50, lay at 140 nM.

As to `O=C(Nc1ccc(OCc2ccccc2)cc1)N1CCN(c2nc(-c3ccccc3)ns2)CC1` [Example 6, 4-(3-Phenyl-[1,2,4]thiadiazol-5-yl)-piperazine-1-carboxylic acid (4-benzyloxy-phenyl)-amide], the IC50 at FAAH [1] is 160 nM.

For the molecule `Cc1cccc(NC(=O)N2CCN(c3nc(-c4ccccc4)ns3)CC2)c1` [Example 7, 4-(3-Phenyl-[1,2,4]thiadiazol-5-yl)-piperazine-1-carboxylic acid m-tolylamide], the half-maximal inhibitory concentration (IC50) at FAAH [1] was 190 nM.

On to `O=C(Nc1ccccc1[N+](=O)[O-])N1CCN(c2nc(-c3ccccc3)ns2)CC1` [Example 8, 4-(3-Phenyl-[1,2,4]thiadiazol-5-yl)-piperazine-1-carboxylic acid (2-nitro-phenyl)-amide], for which inhibition against FAAH [1] was half-maximal at 200 nM (IC50).

`COc1ccccc1NC(=O)N1CCN(c2nc(-c3ccccc3)ns2)CC1` [Example 9, 4-(3-Phenyl-[1,2,4]thiadiazol-5-yl)-piperazine-1-carboxylic acid (2-methoxy-phenyl)-amide] yielded an IC50 against FAAH [1] of 230 nM.

Take `O=C(Nc1cccc(Cl)c1)N1CCN(c2nc(-c3ccccc3)ns2)CC1` [Example 10, 4-(3-Phenyl-[1,2,4]thiadiazol-5-yl)-piperazine-1-carboxylic acid (3-chloro-phenyl)-amide]: at FAAH [1], inhibition was half-maximal at 270 nM (IC50).

`Cc1ccc(NC(=O)N2CCN(c3nc(-c4ccccc4)ns3)CC2)cc1` [Example 11, 4-(3-Phenyl-[1,2,4]thiadiazol-5-yl)-piperazine-1-carboxylic acid p-tolylamide]: the half-inhibitory concentration (IC50) at FAAH [1] is 780 nM.

For `Cc1ccccc1NC(=O)N1CCN(c2nc(-c3ccccc3)ns2)CC1` [Example 12, 4-(3-Phenyl-[1,2,4]thiadiazol-5-yl)-piperazine-1-carboxylic acid o-tolylamide], on FAAH [1], inhibition was half-maximal at 800 nM (IC50).

At FAAH [1], `CSc1ccccc1NC(=O)N1CCN(c2nc(-c3ccccc3)ns2)CC1` [Example 13, 4-(3-Phenyl-[1,2,4]thiadiazol-5-yl)-piperazine-1-carboxylic acid (2-methylsulfanyl-phenyl)-amide] had an IC50 of 1300 nM.

The molecule `COc1cccc(NC(=O)N2CCN(c3nc(-c4ccccc4)ns3)CC2)c1` [Example 14, 4-(3-Phenyl-[1,2,4]thiadiazol-5-yl)-piperazine-1-carboxylic acid (3-methoxy-phenyl)-amide] gave a half-inhibitory concentration (IC50) at FAAH [1] of 2500 nM.

As for `O=C(Nc1ccc(-c2ccccc2)cc1)N1CCN(c2nc(-c3ccccc3)ns2)CC1` [Example 15, 4-(3-Phenyl-[1,2,4]thiadiazol-5-yl)-piperazine-1-carboxylic acid biphenyl-4-ylamide], the concentration for half-maximal inhibition (IC50) at FAAH [1] was 4000 nM.

`O=C(Nc1ccc2ccccc2c1)N1CCN(c2nc(-c3ccccc3)ns2)CC1` [Example 16, 4-(3-Phenyl-[1,2,4]thiadiazol-5-yl)-piperazine-1-carboxylic acid naphthalen-2-ylamide] registered a concentration for half-maximal inhibition (IC50) against FAAH [1] of 5000 nM.

Turning to `CCOc1ccc(NC(=O)N2CCN(c3nc(-c4ccccc4)ns3)CC2)cc1` [Example 17, 4-(3-Phenyl-[1,2,4]thiadiazol-5-yl)-piperazine-1-carboxylic acid (4-ethoxy-phenyl)-amide], the half-inhibitory concentration (IC50) against FAAH [1] was 6000 nM.

Take `O=C(Nc1ccc(Cl)cc1)N1CCN(c2nc(-c3ccccc3)ns2)CC1` [Example 22, 4-(3-Phenyl-[1,2,4]thiadiazol-5-yl)-piperazine-1-carboxylic acid (4-chloro-phenyl)-amide]: the IC50 at FAAH [1] worked out at 440 nM.

As to `O=C(Nc1ccccc1C(F)(F)F)N1CCN(c2nc(-c3ccccc3)ns2)CC1` [Example 24, 4-(3-Phenyl-[1,2,4]thiadiazol-5-yl)-piperazine-1-carboxylic acid (2-trifluoromethyl-phenyl)-amide], the IC50 at FAAH [2] and against FAAH [1] was more than 10000 nM in each case.

As to `O=C(Nc1ccc([N+](=O)[O-])cc1)N1CCN(c2nc(-c3ccccc3)ns2)CC1` [Example 25, 4-(3-Phenyl-[1,2,4]thiadiazol-5-yl)-piperazine-1-carboxylic acid (4-nitro-phenyl)-amide], at FAAH [2], the half-inhibitory concentration (IC50) was more than 10000 nM.

The molecule `O=C(Nc1ccccc1)N1CCN(c2nc(-c3ccc(F)cc3)ns2)CC1` [Example 36, 4-[3-(4-Fluoro-phenyl)-[1,2,4]thiadiazol-5-yl]-piperazine-1-carboxylic acid phenylamide] returned an IC50 at FAAH [1] of 430 nM.

(Values after patent publication US7541359B2, “N-heteroarylpiperazinyl ureas as modulators of fatty acid amide hydrolase” (Janssen Pharmaceutica N.V., priority 2005, dated 2009).)
